This note sets out measurements from patent US20120107323A1, “KINASE PROTEIN BINDING INHIBITORS” (University of Florida, priority 2009, published 2012).

pIC50: −log10 of the molar value.

What all share (assay type): cell-based
The test system of assay [1] is FAK +/+ and FAK −/− mouse embryonic fibroblast. Description: MTT assay on FAK wildtype and null fibroblasts. As for the experimental part: (§1) Cell viability (MTT) and CFSE Proliferation assay: Cells were plated in 96-well plates and let adhere overnight. After cell treatment, cell viability was measured by 3-(4,5-dimethylthiazol-2-yl)-2,5-diphenyl tetrazolium bromide (MTT) assay (CellTiter 96® Aqueous, Promega, Madison, Wis.).
Cell proliferation assay: Cell proliferation assay (Promega) using CellTiter 96 aqueous one solution was performed by adding a small amount of the One Solution Reagent directly to culture wells, incubating for 1-4 hours and then recording absorbance at 490 nm with a spectrophotometric plate reader. The quantity of formazan product as measured by the amount of 490 nm absorbance was directly proportional to the number of living cells in culture.
(§2) Cell viability and detachment assays: After cells were treated with siRNA transfection, cell viability was measured by 3-(4,5-dimethylthiazol2-yl)-2,5-diphenyl tetrazolium bromide (MTT) assay (CellTiter 96® AQueous, Promega, Madison, Wis.). Briefly, 20 μl of the tetrazolium compound was added to each well. The cells were then incubated at 37° C. for 1 h. The plate was read at 490 nm with a plate reader to determine the viability. In detachment assays, detached and attached cells were harvested separately and counted in a hemocytometer. The percentage of detachment was calculated by dividing the number of detached cells by the total number of cells. Apoptosis assays: After treatment, attached and detached cells were collected, counted and prepared for terminal uridine deoxynucleotidyl transferase (TUNEL) assay by utilizing an APO-BRDU kit (BD Pharmingen, San Diego, Calif.) according to the manufacturer's instructions. Stained cells were analyzed with a fluorescence-activated cell sorting-Calibur flow cytometer (BD Biosciences). Calculation of the percentage of apoptotic cells in the sample was completed with CellQuest software (BD Biosciences). Apoptotic cells were also analyzed by Hoechst staining. Hoechst 33342 (1 µg/rill) was added to the fixed cells and the specimens were mounted on glass coverslips. The slides were viewed under the Zeiss microscope for apoptotic nuclei. The percent of apoptotic cells was calculated as the ratio of apoptotic cells to total number of cells.
A general note: Tetrazolium dyes change colour on reduction, which living cells bring about.

The test system of assay [2] is Miapaca-2 pancreatic cancer cells. Nature of the assay: Cell viability (MTT), Miapaca-2. As for the experimental part: as §1
as §2, with “Calculation of the percentage of apoptotic cells in the sample was completed with CellQuest software (BD Biosciences).” left out, “Hoechst 33342 (1 µg/rill) was added to the fixed cells and the specimens were mounted on glass coverslips. The slides were viewed under the Zeiss microscope for apoptotic nuclei. The percent of apoptotic cells was calculated as the ratio of apoptotic cells to total number of cells.” left out

The target in another assay is T1, FAK and IGF-1R (Homo sapiens, UniProt Q05397).
T1 construct: endogenous in cells; host or cells: C8161 (A2) and A375 (A3) melanoma cells
T1 sequence (Q05397 2-1052 limits assumed): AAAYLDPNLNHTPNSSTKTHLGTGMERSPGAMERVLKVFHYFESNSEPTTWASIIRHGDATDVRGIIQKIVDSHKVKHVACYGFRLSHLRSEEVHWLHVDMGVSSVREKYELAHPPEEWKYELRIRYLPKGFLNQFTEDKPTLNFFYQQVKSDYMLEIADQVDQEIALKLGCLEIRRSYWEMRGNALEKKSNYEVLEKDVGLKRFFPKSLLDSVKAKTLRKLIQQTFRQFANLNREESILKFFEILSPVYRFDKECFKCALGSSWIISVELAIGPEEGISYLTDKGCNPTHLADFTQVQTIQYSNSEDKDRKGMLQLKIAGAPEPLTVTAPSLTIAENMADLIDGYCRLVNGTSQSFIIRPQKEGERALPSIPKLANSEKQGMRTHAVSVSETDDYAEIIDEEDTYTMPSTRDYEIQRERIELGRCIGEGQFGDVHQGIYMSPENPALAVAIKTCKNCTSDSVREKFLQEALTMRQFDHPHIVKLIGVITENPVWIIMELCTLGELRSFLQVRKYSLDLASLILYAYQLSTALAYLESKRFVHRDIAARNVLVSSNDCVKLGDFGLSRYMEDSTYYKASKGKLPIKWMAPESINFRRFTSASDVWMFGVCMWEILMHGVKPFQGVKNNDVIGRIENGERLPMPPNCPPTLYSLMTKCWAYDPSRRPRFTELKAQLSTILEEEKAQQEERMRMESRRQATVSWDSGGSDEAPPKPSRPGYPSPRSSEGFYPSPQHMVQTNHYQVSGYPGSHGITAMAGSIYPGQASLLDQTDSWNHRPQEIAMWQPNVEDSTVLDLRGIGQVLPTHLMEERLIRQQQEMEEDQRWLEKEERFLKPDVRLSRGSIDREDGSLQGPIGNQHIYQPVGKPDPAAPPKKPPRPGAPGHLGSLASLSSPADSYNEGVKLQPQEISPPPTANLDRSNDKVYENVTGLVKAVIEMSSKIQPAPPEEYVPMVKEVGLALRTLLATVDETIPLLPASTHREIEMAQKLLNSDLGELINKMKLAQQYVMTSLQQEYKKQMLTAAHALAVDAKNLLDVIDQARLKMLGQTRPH
Description: Coimmunoprecipitation of FAK and IGF-1R in A375 melanoma cells. To be noted: average IC50, A375 cells, immunoprecipitation with antibody against FAK; read-out: IC50, disruption of FAK/IGF-1R binding. The text has this:
Computational Docking The crystal structures of the N-terminal domain of FAK (PDB code 2AL6) (22) and the kinase domain of IGF-1R(PDB 1P40A) (23) were utilized for in silico molecular modeling of their interaction as previously described. The three-dimensional coordinates of compound NSC344553 (INT2-31), obtained from the database of the National Cancer Institute, Developmental Therapeutics Program (NCI/DTP), were docked onto the predicted interface of the amino-terminus of FAK (amino acids 127-243) with the intracytoplasmic portion of IGF-1R (21). […] 100 orientations were created for NSC344553 in the target site and were scored using the computer program grid-based scoring function. […] The intermolecular energies for all configurations of NSC 344553 in binding to FAK-NT2 were calculated as the sum of electrostatic and van der Waals energies. These energy terms were evaluated as correlation functions, which were computed efficiently with Fast Fourier Transforms. […] Bound proteins were boiled in 6× Laemmli buffer and analyzed by SDS-PAGE and Western blotting. […] The intensity of the bands in the western blots was measured with scion image analysis software program. […]

As to `CSc1ncnc2c1ccn2C1O[C@H](COP(=O)(O)O)[C@@H](O)[C@H]1O` (stereo partly drawn) [INT2-31, 4-(Methylthio)-7-(5-O-phosphono-D-ribofuranosyl)-{7H-Pyrrolo[2,3-d]pyrimidine}], in assay [1] (0.05 μM, 72-hour treatment), the “proliferation of FAK+/+ fibroblast cells” value is on record as “reduced the proliferation”. Also, in assay [1] (0.05 μM, 72-hour treatment), the “proliferation of FAK−/− cells” value was “no effect”. The “effect on FAK wildtype compared to null fibroblasts” value in assay [1] (MTT, p<0.05) is listed as “significantly more sensitive”. Moreover, the pIC50 in assay [2] (Homo sapiens, MIA PaCa-2, Miapaca-2, 72 hours, read-out: IC50 of INT2-31, cell viability) was 5.33; at FAK and IGF-1R, 5.50. Also, the “cell viability (in words)” value in assay [2] (MiaPaCa-2, 72 hours) is “inhibits the cell viability”.
